{
  "source": "paper PMC8624038",
  "about": "“Understanding the Mechanism of Action of NAI-112, a Lanthipeptide with Potent Antinociceptive Activity” (Molecules, 2021)",
  "key": {"[1]": {"system": "S. aureus mutant strain R15.5", "assay": "microbe, parasite or virus in culture", "assay_type": "cell-based, Staphylococcus aureus", "conditions": "for MIC: 24 h; for MIC Ratio (R15.1 to wt): ratio of MICs, mutant to wt", "description": "(§1) All experiments were performed with S. aureus ATCC6538P. The strain was propagated at 37 °C in Mueller–Hinton Broth (BD Difco^TM) containing 20 mg/L of CaCl2 and 10 mg/L of MgCl2 (MHBC medium). For selection of resistant strains by direct plating, S. aureus cultures were grown until OD600 of 0.7, corresponding to 5 × 10^8 CFU/mL, centrifuged, and resuspended with fresh medium to 1 × 10^10 CFU/mL. Then, 100 µL were spread on Muller–Hinton Agar (BD Difco^TM) supplemented with 160 µg/mL or 640 µg/mL of NAI-112 and incubated at 37 °C. Colonies were scored after 10 days. For selection of resistant mutants by serial passages, MHBC medium containing serial, twofold dilutions of NAI-112, starting from 512 µg/mL down to 0.5 µg/mL, was inoculated with 1 × 10^5 CFU/mL in a 96-well microtiter plate. Cultures were incubated overnight at 37 °C. The culture at the highest concentration that supported growth was diluted to 1 × 10^5 CFU/mL with fresh medium and added to a fresh plate containing serial dilutions of NAI-112 as before, followed by overnight incubation. This process was continued for 15 passages. From cultures at passage 8 (grown at 64 µg/mL) and passage 15 (grown at 256 µg/mL), single colonies were isolated and named R8.1 and R8.2 (from the eighth series) and R15.1–15.5 (from the fifteenth series).\n(§2) MICs were determined by the broth microdilution methodology in sterile 96-well microtiter plates according to Clinical and Laboratory Standards Institute (CLSI) guidelines, as described by Iorio et al.. When indicated, bovine serum albumin was added to MHBC medium at 0.02% (w/v). […] Growth curves were measured under the same conditions by recording the optical density at 595 nm (OD595) over 20 h using a Synergy 2.0 plate reader (BioTeck, Winooski, VT, USA)."}, "S. aureus ATCC6538P (wt)": {"system": "S. aureus ATCC6538P (wt)", "assay": "microbe, parasite or virus in culture", "assay_type": "cell-based, Staphylococcus aureus", "conditions": "24 h", "description": "as §1, §2"}, "[2]": {"system": "S. aureus mutant strain R8.1", "assay": "microbe, parasite or virus in culture", "assay_type": "cell-based, Staphylococcus aureus", "conditions": "for MIC: 24 h", "description": "as §1, §2"}, "[3]": {"conditions": "cited from earlier work"}, "[4]": {"conditions": "class II lantibiotics; ref [29],[30],[31],[32]; cited from earlier work", "source_text": "A few studies have identified the molecular targets of lanthipeptides. […] Two-peptide lantibiotics, ..."}, "virus": {"system": "virus", "conditions": "ref [7]; cited from earlier work", "source_text": "(§3) NAI-112 is a labionine (Lab)-containing lanthipeptide with a glycosylated tryptophan residue and an unusual methyl-Lab bridge. It was discovered in a phenotypic screening program for inhibitors of bacterial cell wall biosynthesis. […] At the time of its discovery, there was only one precedent of Lab-containing lanthipeptides, the labyrinthopeptins. In particular, despite having unrelated amino acid sequences, NAI-112 and labyrinthopeptin A2 share a similar ri ..."}, "neuropathic pain": {"system": "neuropathic pain", "conditions": "ref [7]; cited from earlier work", "source_text": "as §3"}, "TRPV1 [5]": {"system": "TRPV1", "conditions": "cited from earlier work", "source_text": "In mice, this interference translates in lower LPA levels."}, "TRPV1 [6]": {"system": "TRPV1", "conditions": "ref [24], cited from earlier work", "source_text": "The results from the lipidomic experiments in mice, from the binding assay analyzed in MS and from the analysis of the S. aureus mutants resistant to NAI-112, are consistent with the hypothesis that NAI-112 binds to one or more phosphate-containing lipids and, by doing so, interferes with the processing of these lipids by relevant enzymes. In mice, this interference translates in lower LPA levels."}, "[7]": {"conditions": "class I lanthipeptides, followed by pore formation or membrane disruption, ref [25],[26],[27]"}},
  "note": "Read-outs that look alike come from different tables or passages of the source.",
  "data": [
    {"compound": "CC[C@H]1OC(=O)[C@H](C)[C@@H](O[C@H]2C[C@@](C)(OC)[C@@H](O)[C@H](C)O2)[C@H](C)[C@@H](O[C@@H]2O[C@H](C)C[C@H](N(C)C)[C@H]2O)[C@](C)(O)C[C@@H](C)C(=O)[C@H](C)[C@@H](O)[C@]1(C)O", "note": "[Erythromycin, erythromycin]", "values": [
      {"measurement": "MIC", "setting": "[1]; Staphylococcus aureus", "result": 0.125, "unit": "µg/mL"},
      {"measurement": "MIC Ratio (R15.1 to wt)", "setting": "[1]", "result": 1},
      {"measurement": "MIC", "setting": "S. aureus ATCC6538P (wt); Staphylococcus aureus, ATCC6538P", "result": 0.125, "unit": "µg/mL"},
      {"measurement": "MIC", "setting": "[2]; Staphylococcus aureus", "result": 0.125, "unit": "µg/mL"}
    ]},
    {"compound": "CO[C@H]1/C=C/O[C@@]2(C)Oc3c(C)c(O)c4c(O)c(c(/C=N/N5CCN(C)CC5)c(O)c4c3C2=O)NC(=O)/C(C)=C\\C=C\\[C@H](C)[C@H](O)[C@@H](C)[C@@H](O)[C@@H](C)[C@H](OC(C)=O)[C@@H]1C", "note": "[Rifampicin, rifampicin]", "values": [
      {"measurement": "MIC", "setting": "[1]; Staphylococcus aureus", "result": 0.004, "unit": "µg/mL"},
      {"measurement": "MIC Ratio (R15.1 to wt)", "setting": "[1]", "result": 1},
      {"measurement": "MIC", "setting": "S. aureus ATCC6538P (wt); Staphylococcus aureus, ATCC6538P, wt, MHBC medium, 1 × 10^5 CFU/mL, 37 °C, broth microdilution (CLSI), read-out: MIC", "result": 0.004, "unit": "µg/mL"},
      {"measurement": "MIC", "setting": "[2]; Staphylococcus aureus", "result": 0.004, "unit": "µg/mL"}
    ]},
    {"compound": "CN[C@H](CC(C)C)C(=O)N[C@H]1C(=O)N[C@@H](CC(N)=O)C(=O)N[C@H]2C(=O)N[C@H]3C(=O)N[C@H](C(=O)N[C@H](C(=O)O)c4cc(O)cc(O)c4-c4cc3ccc4O)[C@H](O)c3ccc(c(Cl)c3)Oc3cc2cc(c3O[C@@H]2O[C@H](CO)[C@@H](O)[C@H](O)[C@H]2O[C@H]2C[C@](C)(N)[C@H](O)[C@H](C)O2)Oc2ccc(cc2Cl)[C@H]1O", "note": "[Vancomycin, vancomycin]", "values": [
      {"measurement": "binding to lipid II", "setting": "[3]; ref [14],[15]", "result": "bind to the essential peptidoglycan precursor lipid II"},
      {"measurement": "shift in MIC relative to wt, in words", "setting": "[1]; R15.5", "result": "modest but consistent shift"},
      {"measurement": "MIC", "setting": "[1]; R15.5, MHBC medium, 1 × 10^5 CFU/mL, 37 °C, broth microdilution (CLSI)", "result": 2, "unit": "µg/mL"},
      {"measurement": "MIC Ratio (R15.1 to wt)", "setting": "[1]", "result": 4},
      {"measurement": "MIC", "setting": "S. aureus ATCC6538P (wt); wt, MHBC medium, 1 × 10^5 CFU/mL, 37 °C, broth microdilution (CLSI)", "result": 0.5, "unit": "µg/mL"},
      {"measurement": "shift in MIC relative to wt, in words", "setting": "[2]; R8.1", "result": "modest but consistent shift"},
      {"measurement": "MIC", "setting": "[2]; R8.1, MHBC medium, 1 × 10^5 CFU/mL, 37 °C, broth microdilution (CLSI)", "result": 1, "unit": "µg/mL"}
    ]},
    {"compound": "cinnamycin", "values": [
      {"measurement": "binding to phosphatidylethanolamine-containing lipids", "setting": "[4]", "result": "bind to phosphatidylethanolamine-containing lipids"}
    ]},
    {"compound": "duramycin", "values": [
      {"measurement": "binding to phosphatidylethanolamine-containing lipids", "setting": "[4]", "result": "bind to phosphatidylethanolamine-containing lipids"}
    ]},
    {"compound": "gallidermin", "values": [
      {"measurement": "binding to lipid II", "setting": "[3]; [7]", "result": "bind to lipid II"}
    ]},
    {"compound": "labyrinthopeptin A2", "values": [
      {"measurement": "antiviral activity", "setting": "virus", "result": "moderate antiviral activity"},
      {"measurement": "activity in a neuropathic pain model", "setting": "neuropathic pain", "result": "highly active"}
    ]},
    {"compound": "lacticin 3147", "values": [
      {"measurement": "complex with lipid II", "setting": "[3]; through mersacidin-like component, ref [33]", "result": "form a complex with lipid II"}
    ]},
    {"compound": "lysophosphatidic acid [LPA]", "values": [
      {"measurement": "TRPV1 receptor activation", "setting": "TRPV1 [5]; ref [10],[11]", "result": "activates the TRPV1 receptor"},
      {"measurement": "direct binding to TRPV1 ion channel", "setting": "TRPV1 [5]; ref [24]", "result": "LPA binding directly to an ion channel"},
      {"measurement": "acute pain-like behaviors", "setting": "TRPV1 [6]; Trpv1-null animals", "result": "substantially reduced"},
      {"measurement": "acute pain-like behaviors", "setting": "TRPV1 [6]; control mice", "result": "produces acute pain-like behaviors"}
    ]},
    {"compound": "mersacidin", "values": [
      {"measurement": "binding to lipid II", "setting": "[3]; class II lantibiotics, ref [28]", "result": "bind to lipid II"}
    ]},
    {"compound": "nisin", "values": [
      {"measurement": "binding to lipid II", "setting": "[3]; [7]", "result": "bind to lipid II"},
      {"measurement": "binding to pyrophosphate cage of lipid II", "setting": "[3]; in membranes of bacterial cells, ref [34]", "result": "binding of nisin to the pyrophosphate cage of lipid II"}
    ]},
    {"compound": "ramoplanin", "values": [
      {"measurement": "binding to lipid II", "setting": "[3]; ref [14],[15]", "result": "bind to the essential peptidoglycan precursor lipid II"},
      {"measurement": "shift in MIC relative to wt, in words", "setting": "[1]; R15.5", "result": "modest but consistent shift"},
      {"measurement": "MIC", "setting": "[1]; R15.5, in the presence of 0.02% BSA, MHBC medium, 1 × 10^5 CFU/mL, 37 °C", "result": 0.25, "unit": "µg/mL"},
      {"measurement": "MIC Ratio (R15.1 to wt)", "setting": "[1]; in the presence of 0.02% BSA", "result": 4},
      {"measurement": "MIC", "setting": "S. aureus ATCC6538P (wt); wt, in the presence of 0.02% BSA, MHBC medium, 1 × 10^5 CFU/mL, 37 °C", "result": 0.06, "unit": "µg/mL"},
      {"measurement": "shift in MIC relative to wt, in words", "setting": "[2]; R8.1", "result": "modest but consistent shift"},
      {"measurement": "MIC", "setting": "[2]; R8.1, in the presence of 0.02% BSA, MHBC medium, 1 × 10^5 CFU/mL, 37 °C", "result": 0.25, "unit": "µg/mL"}
    ]}
  ]
}
